The source made the active and inactive calls. How the calls were made is not given here.
Experiment: E-selectin induction blockers, endothelial cells – imaging, retest plus dose response, cell count, confirmation (AID 1288);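 further: 0% = stimulated vehicle wells and 100% = unstimulated vehicle wells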
Settings: human endothelial cells, TNFa-induced E-selectin, imaging; at 2 µM; stronger effect = higher value
In the case of `COc1ccc(-c2csc3ncnc(Oc4cccc5ccc(C)nc45)c23)cc1`, the inhibition is reported as 5.48% (inactive). With `O=c1cc(C(F)F)oc2c1ccc1ccccc12` the inhibition was -6.72% (inactive). For `CCN1CCN(Cc2ccc(C)cc2)CC1`, the inhibition was 6.18% (inactive). In the case of `Cn1cccc1/C=C1/C(=O)NC(=O)N(Cc2ccccc2)C1=O`, the inhibition is reported as 35.4% (inactive). In the case of `COc1ccccc1NC(=O)CSc1nnc2ccc(-c3cccnc3)nn12`, the inhibition is reported as -0.72% (inactive). In the case of `Clc1ccc(Nc2nc3cccnc3s2)cc1`, the inhibition is reported as 7.79% (inactive). In the case of `CC(OC(=O)CCN1C(=O)c2cccc([N+](=O)[O-])c2C1=O)C(=O)Nc1cc(Cl)cc(Cl)c1` (configuration not stated), the inhibition is reported as 36.2% (inactive). For `COc1ccc(-n2nc3c(c2NC(=O)c2cc(Br)ccc2Cl)CS(=O)C3)cc1` (configuration not stated), the inhibition was -1.7% (inactive). In the case of `Cn1cc([N+](=O)[O-])c(C(=O)Nc2ccc(Br)cn2)n1`, the inhibition is reported as 7.96% (inactive). In the case of `COc1cccc(C(C(=O)NC(C)(C)C)N(C(=O)CCC(=O)Nc2cc(C)on2)C2CC2)c1OC` (configuration not stated), the inhibition is reported as 2.4% (inactive). In the case of `CN(CC(=O)Nc1ccc(Cl)cc1)c1ccc(S(=O)(=O)N2CCCCC2)cc1[N+](=O)[O-]`, the inhibition is reported as 7.17% (inactive). For `COc1cc(-c2noc(CCC(=O)Nc3cccnc3)n2)cc(OC)c1OC`, the inhibition was 33.6% (inactive). For `CCOC(=O)/C(C#N)=C1/C=Cc2ccccc2N1CC`, the inhibition was 10.7% (inactive). In the case of `CN1CCN(S(=O)(=O)c2ccc(NC(=O)C3CCCO3)cc2)CC1` (configuration not stated), the inhibition is reported as 13.2% (inactive). For `O=S1(=O)CCN(CCc2c[nH]c3ccccc23)CC1`, the inhibition was -4.95% (inactive). For `CCCCCn1c(SCC#N)nc2cc(C(=O)NCC3CCCO3)ccc2c1=O` (configuration not stated), the inhibition was 7.32% (inactive). In the case of `O=C(Nc1ccc(Cl)cc1)c1cc2nc(-c3ccco3)cc(C(F)(F)F)n2n1`, the inhibition is reported as 14.3% (inactive). In the case of `COC(=O)c1cc2ccsc2n1Cc1nc(-c2cccc(Cl)c2)oc1C`, the inhibition is reported as -2.86% (inactive). With `Cc1cc(NC(=O)CCc2ccc(S(=O)(=O)N3CCOCC3)cc2)n(-c2ccccc2)n1` the inhibition was -9.97% (inactive). With `COc1ccc(OC)c(CCNC(=O)CSc2ccsc2[N+](=O)[O-])c1` the inhibition was 4.97% (inactive). For `N/C(Cc1cccc2ccccc12)=N\OC(=O)c1ccc2c(c1)OCO2`, the inhibition was 6.4% (inactive). With `COc1ccc(N/C=C/C(=O)c2ccc(C)cc2)c([N+](=O)[O-])c1` the inhibition was 17.3% (inactive). With `CCOC(=O)c1c(C)[nH]c(C(=O)OCCOc2ccccc2C)c1C` the inhibition was 0.85% (inactive). For `CC1=C(C(=O)N2CCC3(CC2)OCCO3)C2(CCC(C)CC2)OC1=O` (configuration not stated), the inhibition was 6.34% (inactive). With `CCCOc1ccc(C(=O)NCC(c2cccs2)N(C)C)cc1` (configuration not stated) the inhibition was -0.69% (inactive). With `Cc1nc(SCC(N)=O)c([N+](=O)[O-])[nH]1` the inhibition was 9.44% (inactive). With `CCn1cc(C(=O)NCc2ccco2)c(=O)c2cc(S(=O)(=O)N3CCc4ccccc4C3)ccc21` the inhibition was 41.9% (inactive). With `CCCOC(=O)c1ccc(Cl)c(NC(=O)c2ccc(-c3ccccc3)cc2)c1` the inhibition was 1.66% (inactive). With `CN1CCCN(S(=O)(=O)c2ccc(Cl)c(Cl)c2)CC1` the inhibition was 0.45% (inactive). With `Cc1cc(C(=O)CN2C(=O)NC(c3ccccc3)(c3ccccc3)C2=O)c(C)n1Cc1ccco1` the inhibition was -3.9% (inactive). In the case of `O=C(/C=C/c1ccc2c(c1)OCO2)Nc1nc2ccccc2s1`, the inhibition is reported as 16.2% (inactive). In the case of `CCCNC(=O)C1CCN(S(=O)(=O)c2c(C)noc2/C=C\c2ccc(OC)cc2)CC1`, the inhibition is reported as 6.76% (inactive). In the case of `COc1ccc(C2C(C#N)=C(SCC(=O)Nc3ccc(C)cc3)NC3=C2C(=O)CC(C)(C)C3)cc1` (configuration not stated), the inhibition is reported as 4.4% (inactive). In the case of `CCOc1cc(C(=O)NCc2nnc(SCC(=O)OC)n2C)cc(OCC)c1OCC`, the inhibition is reported as -6.58% (inactive). With `CCOC(=O)c1ccc(-n2ccnc2)c(NC(=O)c2ccc(Cl)cc2)c1` the inhibition was 11.1% (inactive). In the case of `CCOC(=O)C1CCCN(Cc2ccccc2F)C1` (configuration not stated), the inhibition is reported as 30.6% (inactive). In the case of `CC(=O)N[C@@H](Cc1c[nH]c2ccccc12)C(=O)OCC(=O)Nc1ccc(S(=O)(=O)N(C)C)cc1`, the inhibition is reported as 7.84% (inactive).

— PubChem BioAssay AID1288 (Columbia University Molecular Screening Center, 2008)
